Assay results as given in paper PMC11245036 (bioRxiv, 2024).
Blank lines part the entries; values can stand above or below the compound they belong to.

Tests used:
GluA2(Q) [1] = biological target: T1, GluA2(Q) (Rattus norvegicus, UniProt P19491); test: cryo-EM structure; type: binding
GluA2(E) = GluA2(E) (Rattus norvegicus, UniProt P19491, Q607E); test: whole-cell patch clamp in HEK-293 cells, -60 mV; type: cell-based
GluA1 = GluA1 (Rattus norvegicus, UniProt P19490); test: whole-cell patch clamp in HEK-293 cells, -60 mV; type: cell-based
GluA2(Q) [2] = biological target: T1, GluA2(Q); test: cryo-EM structure with glutamate and CTZ; type: cell-based
[3] = biological target: GluA2(Q) subunit, as part of the fusion construct GluA2-γ2EM (rat) (UniProt P19491); test: cryo-EM structure

GluA1, sequence (P19490 19-907): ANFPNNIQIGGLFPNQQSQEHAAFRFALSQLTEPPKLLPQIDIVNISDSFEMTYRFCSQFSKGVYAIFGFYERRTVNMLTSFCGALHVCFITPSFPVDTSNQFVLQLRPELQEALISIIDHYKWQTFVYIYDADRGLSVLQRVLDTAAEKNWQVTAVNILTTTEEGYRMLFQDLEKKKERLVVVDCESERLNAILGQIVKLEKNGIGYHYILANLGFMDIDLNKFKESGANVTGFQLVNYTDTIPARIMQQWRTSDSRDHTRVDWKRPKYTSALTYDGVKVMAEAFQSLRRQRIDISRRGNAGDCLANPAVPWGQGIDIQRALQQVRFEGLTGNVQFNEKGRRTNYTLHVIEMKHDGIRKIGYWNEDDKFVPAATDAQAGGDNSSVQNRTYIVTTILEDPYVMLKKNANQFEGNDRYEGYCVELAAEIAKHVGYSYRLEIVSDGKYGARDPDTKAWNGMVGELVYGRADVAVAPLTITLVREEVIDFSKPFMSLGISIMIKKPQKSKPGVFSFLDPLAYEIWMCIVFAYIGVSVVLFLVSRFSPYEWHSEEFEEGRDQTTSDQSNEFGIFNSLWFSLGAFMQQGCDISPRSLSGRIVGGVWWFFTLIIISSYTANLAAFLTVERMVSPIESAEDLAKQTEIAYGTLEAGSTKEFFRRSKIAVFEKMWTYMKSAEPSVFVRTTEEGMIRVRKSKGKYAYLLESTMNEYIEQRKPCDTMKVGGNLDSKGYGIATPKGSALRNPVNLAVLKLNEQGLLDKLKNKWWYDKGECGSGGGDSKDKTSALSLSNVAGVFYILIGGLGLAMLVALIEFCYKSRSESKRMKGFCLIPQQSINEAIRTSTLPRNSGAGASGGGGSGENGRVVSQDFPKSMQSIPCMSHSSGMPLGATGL

Compound: NS(=O)(=O)c1cc2c(cc1Cl)NC(C1CC3C=CC1C3)NS2(=O)=O (centres unmarked) [CTZ]
cryo-EM structure (GluA2-γ2mem), 100 μM CTZ (GluA2(Q) [1]): Glutamate (yellow), CTZ (purple), and memantine (cyan) are shown as space filling models.

IC50 (GluA2(E)): 25 ± 2 µM
IC50 (GluA1): 10 ± 2 µM
IC50 (GluA2(Q) [2]): 49 ± 2 µM
Compound: CC12CC3CC(C)(C1)CC(N)(C3)C2 [memantine]

stoichiometry N [3]: 4
Compound: GluA2(Q) subunit, as part of the fusion construct GluA2-γ2EM (from UniProt P19491-2 22-883) (receptor)
